{"source": "patent US20090291883A1", "about": "“COMBINATION OF AN IMMUNOSUPPRESSIVE AGENT AND NONSTEROIDAL ANTI -INFLAMMATORY DRUGS TO TREAT DISEASE” (BOSTON MEDICAL CENTER CORPORATION, priority 2006, published 2009)", "key": {"colonic polyps": {"test_system": "colonic polyps", "details": "daily dose of 300 mg, taken systemically; cited from earlier work"}, "sporadic colonic polyps": {"test_system": "sporadic colonic polyps", "details": "cited from earlier work; for regression of adenomatous polyps, small pilot study: sporadic colonic polyps"}, "flat colorectal mucosa": {"test_system": "flat colorectal mucosa", "details": "after treatment with sulindac, FAP subjects; cited from earlier work"}, "[1]": {"test_system": "HT-29 colon adenocarcinoma cell line", "details": "following sulindac administration; cited from earlier work"}, "[2]": {"details": "given orally as a tablet; cited from earlier work"}, "[3]": {"test_system": "MC-26 colorectal cancer cells", "test": "Subcutaneous MC-26 colorectal cancer tumor growth in BALB/c mice", "format": "in vivo", "description": "(§1) A second control group included mice that were not injected with tumor cells and received no treatment.\n(§2) Skin from donor B6 black mice was transplanted to recipient white BALB/c mice. […] To determine the effects of these agents on secondary tumor development, BALB/c mice were also injected subcutaneously with MC-26 colorectal cancer cells and were treated for 22 days with the above regimens. A second control group included mice that were not injected with tumor cells and received no treatment.\n(§3) The inventors subcutaneously injected 2×10^4 MC-26 cells (mouse colorectal adenocarcinoma cell line) into the flanks of 6-8 week old BALB/c mice. Tumor volume was measured at regular intervals during a period of 22 days. […] Skin xenografts from donor black B6 mice were simultaneously transplanted to the backs of the mice."}, "[4]": {"test": "Body weight change of MC-26 tumor-bearing BALB/c mice, day 0 to day 22", "format": "in vivo", "details": "compared with mice not injected with tumor cells and untreated", "description": "as §1, §2"}, "[5]": {"test_system": "skin graft from donor B6 black mice", "test": "Skin graft from donor B6 black mice transplanted to recipient BALB/c mice: graft rejection/survival", "format": "in vivo", "description": "as §2, §3"}, "colorectal cancer": {"test_system": "colorectal cancer", "details": "chronic aspirin use; cited from earlier work"}, "[6]": {"test_system": "villous adenomas of the cecum", "details": "30 mg weekly, for up to 20 months; cited from earlier work"}}}
{"smiles": "CC1=C(CC(=O)O)c2cc(F)ccc2/C1=C\\c1ccc([S+](C)[O-])cc1", "note": "(stereo not drawn) [sulindac]", "values": [{"measurement": "number and size of colonic polyps", "setting": "colonic polyps", "value": "significantly decreased"}, {"measurement": "regression / progression of sporadic colorectal adenomas, multicenter study", "setting": "sporadic colonic polyps; 300 mg daily or 150 mg daily for one year, regardless of dose, nearly 100 subjects", "value": "induced regressions and prevented the progression"}, {"measurement": "regression of adenomatous polyps, small pilot study", "setting": "sporadic colonic polyps", "value": "no similar regression"}, {"measurement": "colonic mucosal apoptosis", "setting": "flat colorectal mucosa", "value": "increased levels"}, {"measurement": "apoptosis in HT-29 cells", "setting": "[1]", "value": "induction of apoptosis"}, {"measurement": "time to peak plasma concentration after dosing", "setting": "[2]", "value": "about two"}]}
{"smiles": "CS(=O)(=O)c1ccc(C2=C(c3ccccc3)C(=O)OC2)cc1", "note": "[rofecoxib]", "values": [{"measurement": "tumor growth / tumor size (FIG. 1)", "setting": "[3]; Example 1, treated for 22 days, rofecoxib chow equivalent to a human dose of 25 mg per day", "value": "significantly smaller"}, {"measurement": "tumor growth / tumor size (FIG. 4)", "setting": "[3]; Example 2, treated for 22 days, cyclosporine 20 mg/kg, rofecoxib chow equivalent to a human dose of 25 mg per day", "value": "significantly smaller"}, {"measurement": "tumor volume (TV)", "setting": "[3]; Example 3, 2×10^4 MC-26 cells s.c. in flank, 22 days, rofecoxib chow 0.01%, cyclosporine 20 mg/kg, skin graft transplanted simultaneously, control chow 920.81±511.10", "value": "394.75±273.37", "unit": "mm^3"}, {"measurement": "tumor volume / tumor growth compared with control chow", "setting": "[3]; Example 3, 22 days", "value": "markedly reduced"}, {"measurement": "growth and body weight gain (FIG. 2)", "setting": "[4]; Example 1, day 0 to day 22", "value": "continued to grow and gained weight similarly to the control group"}, {"measurement": "growth and body weight gain", "setting": "[4]; Example 2, 22 days", "value": "continued to grow and gained weight similarly to the control group"}, {"measurement": "skin graft rejection (FIG. 3)", "setting": "[5]; Example 2, 22 days, cyclosporine 20 mg/kg, rofecoxib chow equivalent to a human dose of 25 mg per day", "value": "rejected the skin graft"}, {"measurement": "skin graft survival at day 15", "setting": "[5]; Example 3, day 15, cyclosporine 20 mg/kg, rofecoxib chow 0.01%, control group 0%", "value": 0, "unit": "%"}, {"measurement": "time by which the skin graft had failed", "setting": "[5]; Example 3, rofecoxib chow 0.01%", "value": "≤ 11", "unit": "days"}]}
{"smiles": "CC(=O)Oc1ccccc1C(=O)O", "note": "[aspirin]", "values": [{"measurement": "reduction in the incidence of colorectal cancer", "setting": "colorectal cancer", "value": "50-70%"}]}
{"smiles": "CN1C(C(=O)Nc2ccccn2)=C(O)c2ccccc2S1(=O)=O", "note": "[piroxicam]", "values": [{"measurement": "regression of pre-malignant adenomas", "setting": "[6]", "value": "dramatic and sustained regression"}, {"measurement": "regression of adenomatous polyps, small pilot study", "setting": "sporadic colonic polyps", "value": "no similar regression"}]}
